From patent US9617212B2, “Isoindolin-1-ones as macrophage migration inhibitory factor (MIF) inhibitors” (Controlled Chemicals, Inc., priority 2013, dated 2017)

Each compound was assayed against T1, Human MIF (MIF tautomerase) (Homo sapiens, UniProt P14174) (assay: MIF Tautomerase Inhibitory Assay with L-Dopachrome Methyl Ester). Conditions: relative potency class, MIF tautomerase inhibition; L-dopachrome methyl ester substrate, pH 7.34, no pre-incubation; read-out: IC50.
T1 construct: purchased ProSpec
T1 sequence (P14174 2-115 limits assumed): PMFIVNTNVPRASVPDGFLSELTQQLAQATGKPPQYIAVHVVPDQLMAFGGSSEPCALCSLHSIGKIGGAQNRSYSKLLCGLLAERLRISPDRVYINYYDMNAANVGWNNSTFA
Format: biochemical
Protocol: MIF Tautomerase Inhibitory Assay with L-Dopachrome Methyl Ester
Assay Method (pH 7.34, 0.017-0.033% DMSO, 0.034% EtOH): A fresh stock solution of L-dopachrome methyl ester in MeOH was prepared at 55-65 mM through oxidation of L-3,4-dihydroxyphenylalanine methyl ester hydrochloride with sodium periodate according to the procedure described in WO9729635A1. MeOH was removed from 0.5 mL of the L-dopachrome methyl ester/MeOH solution (55-65 mM) under a stream of argon and the residue taken up in appropriate amount of water to prepare a substrate solution (7-10 mM). Active Human MIF (from ProSpec) ([…]) was dissolved in 675 μL 0.1% bovine serum albumin (BSA) in water, and the resultant MIF solution (1 volume) mixed with 55 volumes of Na2HPO4 buffer (50 mM, pH 7.34) to form a 265 ng/mL MIF working solution. MIF working solution (280 μL) or a no-MIF working solution (prepared by mixing 0.1% BSA (1 volume) with the aforementioned Na2HPO4 buffer (55 volumes)) was transferred to wells in a column of 8 wells on a 96-well plate in a Plate Reader (SPECTRAmax Plus 384, Molecular Devices), and 5 μL of H2O/DMSO (99/1) containing no inhibitor or an inhibitor (whose concentration was verified by HPLC). Without pre-mixing or pre-incubation, 10 μL freshly prepared L-dopachrome methyl ester/H2O solution (7-10 mM) was added to each well with a multi-pipet. The assay samples were mixed immediately by sucking up and expelling the contents of the wells three times with a multi-pipet. The absorbance (A1) at 475 nm was then recorded for each sample every 2 s for 3 min. After 5-6 min, the samples were monitored again for 3 min with a reading every two seconds at 475 nm (A2). It can be shown that when [substrate]<<Km, plots of Ln(A1−A2) versus time are linear with slopes m (Eq 1). IC50 values were estimated from Eq 2-5, the inhibitor concentration [I] in the assay mixture and values of m in the presence (mi), absence (mo) of the inhibitor, the value of m observed for the non-MIF blank (mn), the MIF concentration (e), and the specificity constant for the MIF catalyzed reaction (kcat/Km). Ln(A1−A2)=−mt (Eq 1) F=(mi−mn)/(mo−mn) (Eq 2) Wherein mo−mn=ekcat/Km (Eq 3) and mi−mn=(ekcat/Km)[…] (Eq 4) IC50=[I]F/(1−F) (Eq 5)
The compounds listed in Table 1, provided herein, were prepared via procedures identical or similar to those described in the Examples 1-85. The listed compounds were >95% pure by HPLC. Each listed compound yielded a mass spectrum consistent with its structure. Concentrations of MIF tautomerase inhibitors used in the assay were verified by HPLC and the extinction coefficients of the inhibitors. The designated relative potency of MIF tautomerase inhibitors is based on the IC50 as determined by the method described in Biochemical Assay as follows: A, IC50<1 μM; B, 1 μM≦IC50<5 μM; C, 5 μM≦IC50<10 μM; D, 10 μM≦IC50<50 μM; E, 50 μM≦IC50<200 μM.
For CNCCOc1cccc(OC[C@H]2CC[C@H](CN3Cc4ccc(O)c(F)c4C3=O)CC2)c1, the IC50 was < 1 µM.
For CNCCOc1cccc(OC(C)[C@H]2CC[C@H](CN3Cc4ccc(O)c(F)c4C3=O)CC2)c1 (some centres unmarked), the IC50 was < 1 µM.
For CC(Oc1cccc(OCCN(C)C)c1)[C@H]1CC[C@H](CN2Cc3ccc(O)c(F)c3C2=O)CC1 (some centres unmarked), the IC50 was < 1 µM.
In the case of O=C1OCc2ccc(OC[C@H]3CC[C@H](CN4Cc5ccc(O)cc5C4=O)CC3)cc21, the IC50 is reported as < 1 µM.
With COc1cc(OC(C)[C@H]2CC[C@H](CN3Cc4ccc(O)c(F)c4C3=O)CC2)ccc1F (some centres unmarked) the IC50 was < 1 µM.
In the case of COc1cc(F)cc(OC[C@H]2CC[C@H](CN3Cc4ccc(O)cc4C3=O)CC2)c1, the IC50 is reported as < 1 µM.
In the case of CC(Oc1cccc(OC(F)(F)F)c1)[C@H]1CC[C@H](CN2Cc3ccc(O)c(F)c3C2=O)CC1 (some centres unmarked), the IC50 is reported as < 1 µM.
For CCC(Oc1cccc(OC(F)(F)F)c1)C1CCC(CN2Cc3ccc(O)c(F)c3C2=O)CC1 (centres unmarked), the IC50 was < 1 µM.
For COc1cccc(OC(C)[C@H]2CC[C@H](CN3Cc4ccc(O)c(F)c4C3=O)CC2)c1 (some centres unmarked), the IC50 was < 1 µM.
In the case of CCC(Oc1cccc(OC)c1)[C@H]1CC[C@H](CN2Cc3ccc(O)c(F)c3C2=O)CC1 (some centres unmarked), the IC50 is reported as < 1 µM.
In the case of COc1cccc(OC[C@H]2CC[C@H](CN3Cc4ccc(O)cc4C3=O)CC2)c1, the IC50 is reported as < 1 µM.
COc1cccc(OC(C)[C@H]2CC[C@H](CN3Cc4cc(F)c(O)c(F)c4C3=O)CC2)c1 (some centres unmarked) was tested, and the IC50 was < 1 µM.
For O=C1c2cc(O)ccc2CN1C[C@H]1CC[C@H](COc2cccc(O)c2)CC1, the IC50 was < 1 µM.
In the case of CCCC(Oc1cccc(F)c1)[C@H]1CC[C@H](CN2Cc3ccc(O)cc3C2=O)CC1 (some centres unmarked), the IC50 is reported as < 1 µM.
With CC(Oc1cccc(F)c1)[C@H]1CC[C@H](CN2Cc3cc(F)c(O)c(F)c3C2=O)CC1 (some centres unmarked) the IC50 was < 1 µM.
CCC(Oc1cccc(F)c1)[C@H]1CC[C@H](CN2Cc3ccc(O)cc3C2=O)CC1 (some centres unmarked) was tested, and the IC50 was < 1 µM.
For CC(Oc1cccc(F)c1)[C@H]1CC[C@H](CN2Cc3cc(F)c(O)cc3C2=O)CC1 (some centres unmarked), the IC50 was < 1 µM.
For CC(Oc1cccc(F)c1)[C@H]1CC[C@H](CN2Cc3ccc(O)c(F)c3C2=O)CC1 (some centres unmarked), the IC50 was < 1 µM.
For O=C1c2c(ccc(O)c2F)CN1C[C@H]1CC[C@H](COc2cccc(F)c2)CC1, the IC50 was < 1 µM.
In the case of CC(Oc1cccc(F)c1)[C@H]1CC[C@H](CN2Cc3ccc(O)cc3C2=O)CC1 (some centres unmarked), the IC50 is reported as < 1 µM.
With O=C1c2cc(O)ccc2CN1C[C@H]1CC[C@H](COc2cccc(F)c2)CC1 the IC50 was < 1 µM.
O=C1c2cc(O)ccc2CN1C[C@H]1CC[C@H](COc2ccccc2F)CC1 was tested, and the IC50 was < 1 µM.
O=C1c2cc(O)ccc2CN1C[C@H]1CC[C@H](COc2ccc(F)cc2)CC1 was tested, and the IC50 was < 1 µM.
With O=C1c2cc(O)ccc2CN1C[C@H]1CC[C@H](COc2ccccc2)CC1 the IC50 was < 1 µM.
In the case of CC[C@@H](C(=O)OC(C)[C@H]1CC[C@H](CN2Cc3ccc(O)c(F)c3C2=O)CC1)c1ccccc1 (some centres unmarked), the IC50 is reported as < 1 µM.
With CCC(C(=O)OC(C)[C@H]1CC[C@H](CN2Cc3cc(F)c(O)cc3C2=O)CC1)c1ccccc1 (some centres unmarked) the IC50 was < 1 µM.
With CC(OC(=O)c1ccccc1)[C@H]1CC[C@H](CN2Cc3ccc(O)c(F)c3C2=O)CC1 (some centres unmarked) the IC50 was < 1 µM.
With CC(OC(=O)CCC(=O)O)[C@H]1CC[C@H](CN2Cc3ccc(O)c(F)c3C2=O)CC1 (some centres unmarked) the IC50 was < 1 µM.
In the case of O=C1c2cc(O)ccc2CN1C[C@H]1CC[C@H](C(=O)N2CCCCC2)CC1, the IC50 is reported as < 1 µM.
In the case of CC(C)(C)COC(=O)[C@H]1CC[C@H](CN2Cc3ccc(O)cc3C2=O)CC1, the IC50 is reported as < 1 µM.
In the case of CC(C)OC(=O)[C@H]1CC[C@H](CN2Cc3ccc(O)cc3C2=O)CC1, the IC50 is reported as < 1 µM.
With COC(=O)[C@H]1CC[C@H](CN2Cc3ccc(O)cc3C2=O)CC1 the IC50 was < 1 µM.
CC(=O)OC(CCC1CCCCC1)[C@H]1CC[C@H](CN2Cc3ccc(O)cc3C2=O)CC1 (some centres unmarked) was tested, and the IC50 was < 1 µM.
CCOC(CCC1CCCCC1)[C@H]1CC[C@H](CN2Cc3ccc(O)cc3C2=O)CC1 (some centres unmarked) was tested, and the IC50 was < 1 µM.
In the case of O=C1c2cc(O)ccc2CN1C[C@H]1CC[C@H](C(O)CCC2CCCCC2)CC1 (some centres unmarked), the IC50 is reported as < 1 µM.
Compound O=C1c2cc(O)ccc2CN1[C@H](CO)C1CCCCC1 has an IC50 of 10 to 50 µM.
For CC1CCCCC1N1Cc2ccc(O)cc2C1=O (centres unmarked), the IC50 was 10 to 50 µM.
Compound O=C1c2cc(O)ccc2CN1[C@H]1CC[C@H](O)CC1 has an IC50 of 10 to 50 µM.
CC(CC1CCCCC1)N1Cc2ccc(O)cc2C1=O (centres unmarked) gave an IC50 of 10 to 50 µM.
O=C1c2cc(O)ccc2CN1CCc1ccc(F)cc1 was tested, and the IC50 was 10 to 50 µM.
In the case of O=C1c2cc(O)ccc2CN1Cc1ccccc1, the IC50 is reported as 10 to 50 µM.
With CCOC(=O)CN1Cc2ccc(O)cc2C1=O the IC50 was 50 to 200 µM.
In the case of CC(Oc1cccc(F)c1)[C@H]1CC[C@H](CN2Cc3cc(F)c(O)cc3C2=O)CC1 (mixture of isomers) [drawing 62], the IC50 is reported as < 1 µM.
In the case of CC(Oc1cccc(F)c1)[C@H]1CC[C@H](CN2Cc3cc(F)c(O)cc3C2=O)CC1 (mixture of isomers) [drawing 63], the IC50 is reported as < 1 µM.
For C[C@@H](OC(=O)CCC(=O)O)[C@H]1CC[C@H](CN2Cc3ccc(O)c(F)c3C2=O)CC1 (single isomer, unassigned), the IC50 was < 1 µM.
In the case of COC(=O)[C@@H](CO)NC(C)[C@H]1CC[C@H](CN2Cc3ccc(O)c(F)c3C2=O)CC1 (single isomer, unassigned), the IC50 is reported as < 1 µM.
CC(N[C@H](CO)C(=O)O)[C@H]1CC[C@H](CN2Cc3ccc(O)c(F)c3C2=O)CC1 (single isomer, unassigned) was tested, and the IC50 was < 1 µM.
In the case of COC(=O)[C@H](NC(C)[C@H]1CC[C@H](CN2Cc3ccc(O)c(F)c3C2=O)CC1)C(C)C (single isomer, unassigned), the IC50 is reported as < 1 µM.
With CC(C)[C@@H](NC(C)[C@H]1CC[C@H](CN2Cc3ccc(O)c(F)c3C2=O)CC1)C(=O)O (single isomer, unassigned) the IC50 was < 1 µM.
COC(=O)[C@H](C)NC(C)[C@H]1CC[C@H](CN2Cc3ccc(O)c(F)c3C2=O)CC1 (single isomer, unassigned) was tested, and the IC50 was < 1 µM.
With CC(N[C@H](C)C(=O)O)[C@H]1CC[C@H](CN2Cc3ccc(O)c(F)c3C2=O)CC1 (single isomer, unassigned) the IC50 was < 1 µM.
For CC(N[C@@H](C)C(=O)O)[C@H]1CC[C@H](CN2Cc3ccc(O)c(F)c3C2=O)CC1 (single isomer, unassigned), the IC50 was < 1 µM.
For CNC(=O)[C@H](Cc1ccccc1)NC(C)C1CCC(CN2Cc3ccc(O)c(F)c3C2=O)CC1 (some centres unmarked) [drawing 99], the IC50 was < 1 µM.
For CNC(=O)[C@H](Cc1ccccc1)NC(C)C1CCC(CN2Cc3ccc(O)c(F)c3C2=O)CC1 (some centres unmarked) [drawing 100], the IC50 was < 1 µM.
For CC(C)C[C@@H](NC(C)C1CCC(CN2Cc3ccc(O)c(F)c3C2=O)CC1)C(=O)O (some centres unmarked) [drawing 104], the IC50 was < 1 µM.
In the case of CC(C)C[C@@H](NC(C)C1CCC(CN2Cc3ccc(O)c(F)c3C2=O)CC1)C(=O)O (some centres unmarked) [drawing 107], the IC50 is reported as < 1 µM.
For CC(C)[C@@H](CO)NC(C)[C@H]1CC[C@H](CN2Cc3ccc(O)cc3C2=O)CC1 (some centres unmarked) [drawing 110], the IC50 was < 1 µM.
For COC(=O)[C@@H](C)NC(C)C1CCC(CN2Cc3ccc(O)c(F)c3C2=O)CC1 (some centres unmarked) [drawing 112], the IC50 was < 1 µM.
In the case of COC(=O)[C@@H](C)NC(C)C1CCC(CN2Cc3ccc(O)c(F)c3C2=O)CC1 (some centres unmarked) [drawing 113], the IC50 is reported as < 1 µM.
Compound O=C(OC1CCCC1)C1CCC(CCN2Cc3ccc(O)cc3C2=O)CC1 (centres unmarked) [drawing 138] has an IC50 of 1 to 5 µM.
Compound O=C(OC1CCCC1)C1CCC(CCN2Cc3ccc(O)cc3C2=O)CC1 (centres unmarked) [drawing 139] has an IC50 of 1 to 5 µM.
In the case of CC(C)[C@@H](CO)NC(C)[C@H]1CC[C@H](CN2Cc3ccc(O)cc3C2=O)CC1 (some centres unmarked) [drawing 150], the IC50 is reported as 1 to 5 µM.
